This is an account of results in patent publication US6107345A, “Benzocyclobutane compounds” (Adir et Compagnie, priority 1998, dated 2000).

The target of one test is T1, serotonin reuptake sites (Rattus norvegicus, UniProt P31652).
T1 construct: The membranes are prepared from frontal cortex of rate; from tissue; host or cells: frontal cortex membranes (rat, printed 'rate')
Put plainly: Determination of the affinity for serotonin reuptake sites ([3H]-paroxetine competition). It counts as binding. Particulars: frontal cortex membranes, 1.0 nM [3H]-paroxetine, 2 hours at 25° C., pH 7.4; read-out: pKi, serotonin reuptake sites (converted). The procedure:
Determination of the affinity for serotonin reuptake sites
The incubation buffer contains […] TRIS-HCl (pH 7.4), 120 mM NaCl and 5 mM KCl. The non-specific binding is determined using 10 μM citalopram. At the end of the incubation, the incubation medium is filtered and washed three times with 5 ml of cooled buffer. The radioactivity retained on the filters is determined by liquid scintillation counting. The binding isotherms are analysed by non-linear regression to determine the IC50 values. Those values are converted into a dissociation constant (Ki) using the Cheng-Prusoff equation: […]
(§1) The results are expressed in pKi (-log Ki).

Test [1] has as its system mouse. Put plainly: Forced swimming test in the mouse. It counts as in vivo. Particulars: for Duration of immobility: last 4 minutes (T2-T6). The procedure:
Forced swimming test in the mouse (Porsolt et al., 1977)
The forced swimming test in the mouse consists of inducing a state of despair in the animal by placing it for 6 minutes in a cylinder full of water, from which it cannot escape. The naive animal struggles vigorously for the first few minutes and then adopts an immobile posture for the last few minutes of the test. Antidepressant products reduce the duration of immobility of the animal during the test.
the animals are male CD (IFFA-CREDO) mice (22-26 g) which, on the day before the test, are placed individually in transparent plastic cages (25×15×14 cm) on sawdust, with food and drink as desired. On the day of the test, 30 minutes after treatment (product or solvent, administered sub-cutaneously), each mouse is plunged for 6 minutes (T0-T6) in a glass cylinder (23.5 cm in height, 11.5 cm in diameter) filled to a height of 6 centimeters with water maintained at 24±0.5° C. The total duration of immobility (sec.) of the animal during the last 4 minutes of the test (T2-T6) is observed: a mouse is considered to be immobile when it is floating in the water, making only small movements to keep its head out of the water.
The differences between the treated groups (product) and the control group (solvent) are evaluated statistically by variance analysis followed by Dunnett's test wherein p<0.05.

Test [2] has as its target T2, noradrenaline reuptake sites (Rattus norvegicus, UniProt Q63380).
T2 construct: The membranes are prepared from frontal cortex of rat; from tissue; host or cells: rat frontal cortex membranes
Put plainly: Determination of the affinity for noradrenaline reuptake sites ([3H]-nisoxetine competition). Particulars: frontal cortex membranes, 2 nM [3H]-nisoxetine, 4 hours at 4° C., pH 7.4; read-out: pKi, noradrenaline reuptake sites (converted). It counts as binding. The procedure:
The binding isotherms are analysed by non-linear regression to determine the IC50 values. Those values are converted into a dissociation constant (Ki) using the Cheng-Prusoff equation: […]
as §1

Test [3] deals with mouse. The test can be described thus: Suspension-by-the-tail test in the mouse. It counts as in vivo. The conditions noted are these: for Immobility: 6 minutes of the test. From the text:
Suspension-by-the-tail test in the mouse
In this variation of the forced swimming test, the state of despair is induced in the mouse by suspending it head down by its tail. Placed in that uncomfortable situation, the animal struggles vigorously to start with and then adopts an immobile posture. Antidepressant products reduce the duration of immobility of the animal.
The animals are male NMRI (IFFA-CREDO) mice (22-26 g) which are housed, in groups of 20, in transparent plastic cages (59×38×20 cm) on sawdust, with food and drink as desired. On the day of the test, each mouse is placed in a separate cage as soon as it has been treated (sub-cutaneously) with the product or the solvent. Thirty minutes later, the animal is suspended by the tail from a hook using an adhesive tape attached to the tail. The hook is connected to a tension sensor which transmits all the animal's movements to a central processor ([…]-TST 1 system, ITEM-LABO, France). The total duration (sec.) of immobility of the animal during the 6 minutes of the test is recorded automatically.
The differences in the duration of immobility between the treated groups (product) and the control group (solvent) are analysed statistically by ANOVA followed by Dunnett's test, wherein p<0.05.

T2 sequence (Q63380 1-617): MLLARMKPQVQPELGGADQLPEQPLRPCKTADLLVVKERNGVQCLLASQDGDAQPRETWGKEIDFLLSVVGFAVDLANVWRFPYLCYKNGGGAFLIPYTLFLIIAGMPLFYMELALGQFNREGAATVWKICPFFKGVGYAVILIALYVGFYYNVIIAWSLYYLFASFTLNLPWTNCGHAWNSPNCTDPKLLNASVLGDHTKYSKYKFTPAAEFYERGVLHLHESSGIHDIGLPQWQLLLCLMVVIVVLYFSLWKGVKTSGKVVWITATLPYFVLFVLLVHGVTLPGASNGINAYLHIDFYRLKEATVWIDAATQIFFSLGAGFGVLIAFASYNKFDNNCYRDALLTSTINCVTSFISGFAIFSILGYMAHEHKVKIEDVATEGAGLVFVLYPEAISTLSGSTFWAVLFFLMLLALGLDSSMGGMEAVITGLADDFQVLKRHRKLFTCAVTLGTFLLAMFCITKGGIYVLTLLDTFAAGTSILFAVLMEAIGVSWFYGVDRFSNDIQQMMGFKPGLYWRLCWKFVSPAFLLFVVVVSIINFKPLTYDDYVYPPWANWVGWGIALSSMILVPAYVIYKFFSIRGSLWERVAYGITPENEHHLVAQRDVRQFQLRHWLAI
T1 sequence (P31652 whole entry): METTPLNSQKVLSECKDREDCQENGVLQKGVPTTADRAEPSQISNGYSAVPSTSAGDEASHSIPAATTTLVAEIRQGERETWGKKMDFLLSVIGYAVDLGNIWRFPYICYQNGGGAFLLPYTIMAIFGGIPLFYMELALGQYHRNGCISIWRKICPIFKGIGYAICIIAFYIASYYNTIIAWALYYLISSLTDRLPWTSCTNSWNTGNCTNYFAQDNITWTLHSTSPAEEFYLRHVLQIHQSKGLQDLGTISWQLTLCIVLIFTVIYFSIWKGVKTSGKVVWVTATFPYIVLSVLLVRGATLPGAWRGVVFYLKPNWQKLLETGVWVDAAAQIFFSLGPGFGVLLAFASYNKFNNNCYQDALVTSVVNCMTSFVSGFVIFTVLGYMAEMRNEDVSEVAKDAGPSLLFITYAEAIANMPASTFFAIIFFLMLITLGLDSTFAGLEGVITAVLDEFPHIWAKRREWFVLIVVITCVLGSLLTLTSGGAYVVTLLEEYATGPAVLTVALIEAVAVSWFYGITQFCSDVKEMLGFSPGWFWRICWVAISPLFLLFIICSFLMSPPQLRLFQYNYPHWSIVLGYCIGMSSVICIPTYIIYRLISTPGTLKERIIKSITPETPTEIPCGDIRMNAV

Take `COc1ccc2c(c1)C(CN(C)C)(C1(O)CCCCC1)C2` (single isomer, unassigned; (-)) [Example 8, (-)-Isomer of 1-(N,N-dimethylaminomethyl)-1-(1-hydroxycyclohex-1-yl)-5-methoxybenzocyclobutane]: at serotonin reuptake sites, the Ki is 2 nM.
With `COc1ccc2c(c1)CC2(CN(C)C)C1(O)CCCCC1` (stereo not drawn) [Example 4, 1-(N,N-Dimethylaminomethyl)-1-(1-hydroxycyclohex-1-yl)-4-methoxybenzocyclobutane], the “Duration of immobility, %/control” value with mouse [1] (0.63 mg/kg s.c.) is given as 94%; with mouse [1] (2.5 mg/kg s.c.) it was 61%; in the test with mouse [1] (10.0 mg/kg s.c.) it was 4%. In addition, the Duration of immobility in the test with mouse [1] (0.63 mg/kg s.c.) is 157.3 ± 18.9 s; in the test with mouse [1] (2.5 mg/kg s.c.) it was 101.6 ± 57.3 s; with mouse [1] (10.0 mg/kg s.c., * p < 0.05), 6.1 ± 6.1 s.
`COc1cccc2c1C(CN(C)C)(C1(O)CCCCC1)C2` (stereo not drawn) [Example 9, 1-(N,N-Dimethylaminomethyl)-1-(1-hydroxycyclohex-1-yl)-6-methoxybenzocyclobutane]: the Ki in test [2] is 56.2 nM.
On to `CNCCC(Oc1ccc(C(F)(F)F)cc1)c1ccccc1` (stereo not drawn) [fluoxetine, reference compound], for which the “Immobility, %/control” value was 91% with mouse [3] (40.0 mg/kg s.c.) and 110% in the test with mouse [3] (80.0 mg/kg s.c.). Also, the Immobility came out at 69.9 ± 17.8 s with mouse [3] (40.0 mg/kg s.c.) and 84.3 ± 12.4 s with mouse [3] (80.0 mg/kg s.c.). In addition, the “Duration of immobility, %/control” value in the test on mouse [1] (2.5 mg/kg s.c.) is 94%; in the test with mouse [1] (10.0 mg/kg s.c.), 75%; in the test with mouse [1] (40.0 mg/kg s.c.), 73%.
Consider `COc1ccc2c(c1)C(CN(C)C)(C1(O)CCCCC1)C2` (stereo not drawn) [Example 3, 1-(N,N-Dimethylaminomethyl)-1-(1-hydroxycyclohex-1-yl)-5-methoxybenzocyclobutane], for which the entries for the “Immobility, %/control” value with mouse [3] (0.63 mg/kg s.c.), in the test with mouse [3] (2.5 mg/kg s.c.) and in the test on mouse [3] (10.0 mg/kg s.c.) were 88%, 51% and 35%, respectively. Also, the Immobility in the test on mouse [3] (0.63 mg/kg s.c.) amounted to 70.4 ± 13.5 s; in the test with mouse [3] (2.5 mg/kg s.c.) it was 41.1 ± 9.6 s; in the test with mouse [3] (10.0 mg/kg s.c., * p < 0.05), 27.8 ± 9.6 s.
